Source: US3946000A, “7-[α-(2-Aminomethyl-1-cyclohexenyl)-acetamido]-3-heterocyclic thiomethyl-3-cephem-4-carboxylic acids” (Bristol-Myers Company, priority 1973, dated 1976)
≈ marks a conversion by molar mass, not a printed value. Where “and” joins values, the source holds several entries; their conditions need not be identical. Equal entries are not always repeated. Where two headings read alike, the source gives them in different places.

How the values were obtained:
[1] = Solubility in 0.1 M pH 7.0 phosphate buffer (bioassay and UV-assay); type: physicochemical; conditions: for Solubility, UV (UV-assay): 240 min; for solubility at 4 h: 0.1 m phosphate buffer, pH 7, aqueous buffer
Description: *Stirred at 25° C. for 4 hours in 0.1 M pH 7.0 phosphate
buffer--filtered through Milipore filter (0.45 μ)--assayed
spectroscopically against its own standard.
The test solution and the standard solution are prepared as described below.
About 10 mg. (1) of a sample is placed in a vial and mixed with 1 ml. of 0.1 M phosphate buffer (pH 7.0). The vial is stoppered, sealed with a metal cap, placed on a rotary shaker and agitated at 160 rpm for 4 hr. at 25° C. The solution is filtered through a Millipore filter (HAWP 01300, mean pore size 0.45 μm). The filtrate is diluted to use for bioassay and UV assay as follows:
About 2 mg. of the same sample is weighed precisely and dissolved in 4 ml. of 1% K2 CO3 solution^(3) (usually within one minute). The solution is diluted exactly to 50 ml. in a flask with 0.1 M pH 7.0 phosphate buffer and used for the preparation of the standard solutions for bioassay and UV-assay as follows:
(1) A 20 mg. or more sample is used when the sample is expected to be more soluble.
(2) 0.1 M pH 7.0 phosphate buffer is used as a diluent in the present test and also as a reference solution in UV-assay.
(3) It was previously confirmed that almost the same result is obtained when the sample is solubilized in DMSO (dimethylsulfoxide) and then diluted similarily with the buffer.
(4) Volume of the solution is measured precisely with an appropriate pipette or flask.
BA: Bioassay, UV: UV-assay Results given for the same compound on different lines were obtained using samples from different lots.

Ser. marcescens A20019 = assay: M.I.C. by Tube Dilution, Ser. marcescens A20019; type: cell-based; conditions: Serratia marcescens, 10^-4 dilution, overnight at 37° C.
E. coli ATCC 8739 = assay: M.I.C. by Tube Dilution, E. coli ATCC 8739; type: cell-based; conditions: Escherichia coli, ATCC8739, overnight at 37° C.
Pr. morganii A15153 = assay: M.I.C. by Tube Dilution, Pr. morganii A15153; type: cell-based; conditions: Morganella morganii, 10^-4 dilution, overnight at 37° C.
Mycobacterium 607 = assay: M.I.C. by Tube Dilution, Mycobacterium 607; type: cell-based; conditions: overnight at 37° C.
Str. pyogenes A9604 = assay: M.I.C. by Tube Dilution, Str. pyogenes A9604; type: cell-based; conditions: Streptococcus pyogenes; Str. pyogenes A9604 + 5% serum; 50% Nutrient Broth - 45% Antibiotic Assay Broth; overnight at 37° C.
Sal. enteritidis A9531 = assay: M.I.C. by Tube Dilution, Sal. enteritidis A9531; type: cell-based; conditions: Salmonella enterica, 10^-4 dilution, overnight at 37° C.
K. pneumoniae A9977 = assay: M.I.C. by Tube Dilution, K. pneumoniae A9977; type: cell-based; conditions: Klebsiella pneumoniae, 10^-4 dilution, overnight at 37° C.
K. pneumoniae A15130 = assay: M.I.C. by Tube Dilution, K. pneumoniae A15130; type: cell-based; conditions: Klebsiella pneumoniae, 10^-4 dilution, overnight at 37° C.
S. aureus BX1633 A9606 = assay: M.I.C. by Tube Dilution, S. aureus BX1633 A9606; type: cell-based; conditions: Nutrient Broth, overnight at 37° C.; for MIC: Staphylococcus aureus, BX1633A9606, S. aureus BX1633 A9606
Pr. mirabilis A9900 = assay: M.I.C. by Tube Dilution, Pr. mirabilis A9900; type: cell-based; conditions: Proteus mirabilis, 10^-4 dilution, overnight at 37° C.
S. aureus Russel = assay: M.I.C. by Tube Dilution, S. aureus Russel; type: cell-based; conditions: Nutrient Broth, overnight at 37° C.; for MIC: Staphylococcus aureus
Ps. aeruginosa A9843 = assay: M.I.C. by Tube Dilution, Ps. aeruginosa A9843; type: cell-based; conditions: Pseudomonas aeruginosa, 10^-4 dilution, overnight at 37° C.
E. coli NIHJ = assay: M.I.C. by Tube Dilution, E. coli NIHJ; type: cell-based; conditions: Escherichia coli, overnight at 37° C.
E. coli Juhl A15119 = assay: M.I.C. by Tube Dilution, E. coli Juhl A15119; type: cell-based; conditions: Escherichia coli, JUHLA15119, 10^-4 dilution, overnight at 37° C.
S. aureus Smith A9537 = assay: M.I.C. by Tube Dilution, S. aureus Smith A9537; type: cell-based; conditions: Staphylococcus aureus, 10^-4 dilution, overnight at 37° C.
D. pneumoniae A9585 = assay: M.I.C. by Tube Dilution, D. pneumoniae A9585; type: cell-based; conditions: Streptococcus pneumoniae, A9585, D. pneumoniae A9585 + 5% serum; 50% Nutrient Broth - 45% Antibiotic Assay Broth; overnight at 37° C.
E coli Juhl = assay: Minimum curative dose in infected mice, E coli Juhl; type: in vivo; conditions: Mus musculus, sc; subcutaneous, mice infected with lethal dose of E coli Juhl; read-out: CD50 (minimum curative dose for 50% of the mice)
S. aureus BX-1633 = assay: Minimum curative dose in infected mice, S. aureus BX-1633; type: in vivo; conditions: Staphylococcus aureus, BX1633, sc; subcutaneous, mice infected with lethal dose of S. aureus BX-1633; read-out: CD50 (minimum curative dose for 50% of the mice)
[2] = 0.1 M phosphate buffer (pH 7.0), 4 hr. at 25° C., UV-assay
[3] = 0.1 M phosphate buffer (pH 7.0), 4 hr. at 25° C., UV-assay, read-out: Solubility, UV (UV-assay)
[4] = 0.1 M phosphate buffer (pH 7.0), 4 hr. at 25° C., bioassay, read-out: Solubility, BA (bioassay)
[5] = stirred at 25° C. for 4 hours in 0.1 M pH 7.0 phosphate buffer, assayed spectroscopically against its own standard, read-out: Solubility
[6] = UV-assay, read-out: Solubility (UV)
[7] = bioassay, read-out: Solubility (BA)

## NCc1ccccc1CC(=O)NC1C(=O)N2C(C(=O)O)=C(CSc3ccc4nnc(O)n4n3)CSC12 (stereo not shown) [BB-S207, reference compound]
[1]; [2]
  Solubility, UV (UV-assay): 3600 µg/mL (≈ 6.82 mM)
[1]; [3]
  solubility at 4 h: 3900 µg/mL (≈ 7.39 mM)
[1]; [4]
  solubility at 4 h: 4200 µg/mL (≈ 7.96 mM)
[1]; [5]
  solubility at 4 h: 3600 µg/mL (≈ 6.82 mM)

## NCC1=C(CC(=O)NC2C(=O)N3C(C(=O)O)=C(CSc4ccc(O)nn4)CS[C@H]23)CCCC1 (stereo partly drawn) [Example 1, 7-[α-(2-aminomethyl-1-cyclohexenyl)acetamido]-3-(6-hydroxypyridazin-3-ylthiomethyl)-3-cephem-4-carboxylic acid]
[1]; [3]
  solubility at 4 h: 16000 µg/mL (≈ 32.5 mM)
[1]; [4]
  solubility at 4 h: 16800 µg/mL (≈ 34.2 mM)
[1]; [5]
  solubility at 4 h: 16000 to 16800 µg/mL (≈ 32.5 to 34.2 mM)

## NCC1=C(CC(=O)NC2C(=O)N3C(C(=O)O)=C(CSc4ccc5nnc(O)n5n4)CSC23)CCCC1 (stereo not drawn) [Example 5, 7-[α-(2-Aminomethyl-1-cyclohexenyl)acetamido]-3-(3-hydroxypyridazino-[3,2-c]-3-triazol-6-ylthiomethyl)-3-cephem-4-carboxylic acid]
[1]; [3]
  solubility at 4 h: 8100 µg/mL (≈ 15.2 mM)
[1]; [4]
  solubility at 4 h: 8000 µg/mL (≈ 15 mM)
[1]; [5]
  solubility at 4 h: 8000 µg/mL (≈ 15 mM)

## Cc1nnc(SCC2=C(C(=O)O)N3C(=O)C(NC(=O)CC4=C(CN)CCCC4)[C@H]3SC2)s1 (stereo partly drawn) [Example 4, 7-[α-(2-aminomethyl-1-cyclohexenyl)acetamido]-3-(5-methyl-1,3,4-thiadiazol-2-ylthiomethyl)-3-cephem-4-carboxylic acid]
[1]; [3]
  solubility at 4 h: 4600 µg/mL (≈ 9.28 mM)
[1]; [4]
  solubility at 4 h: 4300 µg/mL (≈ 8.68 mM)
[1]; [5]
  solubility at 4 h: 4300 to 4600 µg/mL (≈ 8.68 to 9.28 mM)

## NCc1ccccc1CC(=O)NC1C(=O)N2C(C(=O)O)=C(CSc3ccc4nnnn4n3)CSC12 (stereo not shown) [BB-S226, reference compound]
[1]; [2]
  Solubility, UV (UV-assay): 2100 µg/mL and 3500 µg/mL and 2200 µg/mL
[1]; [3]
  solubility at 4 h: 2500 µg/mL (≈ 4.88 mM)
[1]; [4]
  solubility at 4 h: 3800 µg/mL (≈ 7.41 mM)
[1]; [5]
  solubility at 4 h: 3500 µg/mL (≈ 6.83 mM)

## CC1=C(C(=O)O)N2C(=O)C(NC(=O)CC3=C(CN)CCCC3)C2SC1 (stereo not drawn) [Example 17, 7-[α-(2-Aminomethyl-1-cyclohexenyl)acetamido]desacetoxycephalosporanic acid]
Ser. marcescens A20019
  MIC: > 100 µg/mL
E. coli ATCC 8739
  MIC: > 100 µg/mL
Pr. morganii A15153
  MIC: > 100 µg/mL
Mycobacterium 607
  MIC: > 100 µg/mL
Str. pyogenes A9604
  MIC: 1.25 to 2.5 µg/mL
Sal. enteritidis A9531
  MIC: > 100 µg/mL
K. pneumoniae A9977
  MIC: > 100 µg/mL
K. pneumoniae A15130
  MIC: > 100 µg/mL
S. aureus BX1633 A9606; S. aureus BX1633 A9606, listed as 6x
  M.I.C.: 25 Mcg./ml.
S. aureus BX1633 A9606
  MIC: > 12.5 µg/mL
Pr. mirabilis A9900
  MIC: > 100 µg/mL
S. aureus Russel; listed as 6x
  M.I.C.: 12.5 Mcg./ml.
S. aureus Russel
  MIC: > 12.5 µg/mL
[1]; [6]
  solubility at 4 h: 3300 µg/mL (≈ 9.03 mM)
[1]; [7]
  solubility at 4 h: 4100 µg/mL (≈ 11.2 mM)
Ps. aeruginosa A9843
  MIC: > 100 µg/mL
E. coli NIHJ
  MIC: > 100 µg/mL
E. coli Juhl A15119
  MIC: > 100 µg/mL

## CC(=O)OCC1=C(C(=O)O)N2C(=O)C(NC(=O)CC3=C(CN)CCCC3)C2SC1 (stereo not drawn) [Example 16, 7-[α-(2-Aminomethy-1-cyclohexenyl)acetamido]cephalosporanic acid]
Ser. marcescens A20019
  MIC: > 100 µg/mL
E. coli ATCC 8739
  MIC: 25 µg/mL (≈ 0.059 mM)
Pr. morganii A15153
  MIC: > 100 µg/mL
Mycobacterium 607
  MIC: > 100 µg/mL
Sal. enteritidis A9531
  MIC: 12.5 µg/mL (≈ 0.0295 mM)
K. pneumoniae A9977
  MIC: 12.5 to 25 µg/mL (≈ 0.0295 to 0.059 mM)
S. aureus Smith A9537; SMITHA9537, S. aureus Smith A9537 + 50% serum
  MIC: 3.1 µg/mL
S. aureus Smith A9537; SMITHA9537, S. aureus Smith A9537, Nutrient Broth
  MIC: 0.8 µg/mL (≈ 0.00189 mM)
K. pneumoniae A15130
  MIC: 12.5 to 50 µg/mL (≈ 0.0295 to 0.118 mM)
S. aureus BX1633 A9606
  MIC: 3.1 µg/mL (≈ 0.00732 mM)
Pr. mirabilis A9900
  MIC: 50 µg/mL (≈ 0.118 mM)
S. aureus Russel
  MIC: 0.8 to 1.6 µg/mL (≈ 0.00189 to 0.00378 mM)
D. pneumoniae A9585
  MIC: 0.16 to 0.31 µg/mL
[1]; [6]
  solubility at 4 h: 5300 µg/mL (≈ 12.5 mM)
[1]; [7]
  solubility at 4 h: 5400 µg/mL (≈ 12.8 mM)
Ps. aeruginosa A9843
  MIC: > 100 µg/mL
E. coli NIHJ
  MIC: 25 to 50 µg/mL (≈ 0.059 to 0.118 mM)
E. coli Juhl A15119
  MIC: 25 µg/mL (≈ 0.059 mM)

## Cc1nnc(SCC2=C(C(=O)O)N3C(=O)C(NC(=O)Cc4ccccc4CN)C3SC2)s1 (stereo not shown) [MR-S96, reference compound]
[1]; [3]
  solubility at 4 h: 900 µg/mL (≈ 1.83 mM)
[1]; [4]
  solubility at 4 h: 1200 µg/mL (≈ 2.44 mM)
[1]; [5]
  solubility at 4 h: 900 µg/mL (≈ 1.83 mM)

## Cn1nnnc1SCC1=C(C(=O)O)N2C(=O)C(NC(=O)Cc3ccccc3CN)C2SC1 (stereo not shown) [MR-S94, reference compound]
E coli Juhl
  ED50: 4.4 mg/kg
S. aureus BX-1633
  ED50: 3.4 mg/kg
[1]; [3]
  solubility at 4 h: 1900 µg/mL (≈ 4 mM)
[1]; [4]
  solubility at 4 h: 2000 µg/mL (≈ 4.21 mM)
[1]; [5]
  solubility at 4 h: 1900 µg/mL (≈ 4 mM)

## NCC1=C(CC(=O)NC2C(=O)N3C(C(=O)O)=C(CSc4ccc5nnnn5n4)CSC23)CCCC1 (stereo not drawn) [Example 2, 7-[α-(2-aminomethyl-1-cyclohexenyl)acetamido]-3-(pyradazino[2,3-d]tetrazol-6-ylthiomethyl)-3-cephem-4-carboxylic acid]
[1]; [3]
  solubility at 4 h: 3000 µg/mL (≈ 5.81 mM)
[1]; [4]
  solubility at 4 h: 3000 µg/mL (≈ 5.81 mM)
[1]; [5]
  solubility at 4 h: 3000 µg/mL (≈ 5.81 mM)

## NCc1ccccc1CC(=O)NC1C(=O)N2C(C(=O)O)=C(CSc3ccc(O)nn3)CSC12 (stereo not shown) [BB-S150, reference compound]
[1]; [3]
  solubility at 4 h: 4400 µg/mL (≈ 9.02 mM)
[1]; [4]
  solubility at 4 h: 4400 µg/mL (≈ 9.02 mM)
[1]; [5]
  solubility at 4 h: 4400 µg/mL (≈ 9.02 mM)
